The nature of assay [1]: Luminescence Cell-Based Dose Confirmation HTS to Identify Activators of 5'UTR Stem-Loop Driven Alpha-Synuclein mRNA Translation in H4 Neuroglioblastoma Cells. [Related pubchem assays: 1829 (Project Summary), 1814 (Primary HTS)]. The class given is functional.
Assay [2] is described as follows: Luminescence Cell-Based Dose Response HTS to Identify Activators of Luciferase Translation or Activity in H4 […] Cells. [Related pubchem assays: 1829 (Project Summary), 1814 (Primary HTS)]. The class given is functional.
Assay [3] has as its system H4. Description: Luminescence Cell-Based Dose Response HTS to Identify Activators of 5'UTR Stem-Loop Driven Prion Protein mRNA Translation in H4 Neuroglioblastoma Cells. [Related pubchem assays: 1829 (Project Summary), 1814 (Primary HTS)]. It is filed as functional. The settings on record: Homo sapiens.
For assay [4], the system named is T-cell. As to the kind of experiment: loss of vesicle association with mouse CD8+ T cells – mouse 2C CD8+ T cells, flow cytometry, dose response (AID 485284). It is filed as functional. Background: Flow cytometry measures light scatter and fluorescence of single cells or particles in a stream.
Assay [5] addresses Eukaryotic translation initiation factor 4H (Homo sapiens, UniProt Q15056). Description: inhibitors of translation initiation factor eIF4H – SAR follow-up (AID 435011). It is filed as functional.
Assay [6] concerns the target Polyadenylate-binding protein 1 (Homo sapiens, UniProt P11940). Description: PABP inhibition in translation initiation, SAR follow-up (AID 435018). It is filed as functional.
For assay [7], the target named is T1, RNA-binding protein pos-1 (Caenorhabditis elegans, UniProt G5EF15).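 Also: purified POS-1 fused to maltose binding protein made in E. coli; potency of compounds blocking POS-1 binding to fluorescent RNA.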
T1 sequence (G5EF15 whole entry): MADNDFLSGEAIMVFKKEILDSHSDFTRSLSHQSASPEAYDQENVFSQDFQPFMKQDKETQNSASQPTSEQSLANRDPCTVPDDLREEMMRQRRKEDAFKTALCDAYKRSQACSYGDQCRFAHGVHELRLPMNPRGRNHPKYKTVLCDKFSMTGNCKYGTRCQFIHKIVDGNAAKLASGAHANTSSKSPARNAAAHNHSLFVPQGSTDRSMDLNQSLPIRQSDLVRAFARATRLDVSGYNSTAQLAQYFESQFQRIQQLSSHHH
As to the kind of experiment: disruptors of C. elegans POS-1 RNA interaction – biochemical, fluorescence polarization, dose response (AID 1964). (In general: Polarisation of emitted light reports the rotation of a fluorescent probe.)

Assay [8] addresses Intestinal-type alkaline phosphatase (Homo sapiens, UniProt P09923). As to the kind of experiment: Dose Response confirmation of uHTS hits from a small molecule inhibitors of human intestinal alkaline phosphatase via a luminescent assay. [Related pubchem assays (depositor defined):AID2544, AID2574]. It is filed as functional.
The target of assay [9] is T2, Corticotropin-releasing factor receptor 2/Corticotropin-releasing factor-binding protein (Homo sapiens, UniProt P24387+Q13324).
T2 sequence (Q13324 whole entry): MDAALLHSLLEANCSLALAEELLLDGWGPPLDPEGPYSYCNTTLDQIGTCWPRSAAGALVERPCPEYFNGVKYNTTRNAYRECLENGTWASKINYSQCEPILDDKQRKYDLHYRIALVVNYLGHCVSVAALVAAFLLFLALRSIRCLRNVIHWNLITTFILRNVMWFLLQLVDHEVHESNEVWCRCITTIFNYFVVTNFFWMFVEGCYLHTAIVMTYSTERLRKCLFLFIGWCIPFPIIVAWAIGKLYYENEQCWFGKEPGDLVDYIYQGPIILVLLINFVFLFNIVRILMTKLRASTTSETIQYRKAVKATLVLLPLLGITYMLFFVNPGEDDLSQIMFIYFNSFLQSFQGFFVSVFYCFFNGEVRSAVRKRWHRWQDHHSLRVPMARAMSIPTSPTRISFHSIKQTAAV
T2 sequence (P24387 whole entry): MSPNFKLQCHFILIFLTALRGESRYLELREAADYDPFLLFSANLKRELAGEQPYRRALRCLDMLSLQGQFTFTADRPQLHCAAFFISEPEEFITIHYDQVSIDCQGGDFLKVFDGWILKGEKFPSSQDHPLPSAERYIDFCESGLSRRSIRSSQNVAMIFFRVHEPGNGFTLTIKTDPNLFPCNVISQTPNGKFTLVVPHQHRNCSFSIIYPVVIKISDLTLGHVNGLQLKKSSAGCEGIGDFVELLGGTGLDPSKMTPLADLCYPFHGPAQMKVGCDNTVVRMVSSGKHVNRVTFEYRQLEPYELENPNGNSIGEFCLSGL
As to the kind of experiment: activators of CRF receptor 2 with binding protein – uHTS hits, confirmation (AID 602473). Particulars: read-out: EC50_Mean. It is filed as functional.

Assay [10] concerns the target T3, Coagulation factor XII (Homo sapiens, UniProt P00748).
T3 sequence (P00748 whole entry): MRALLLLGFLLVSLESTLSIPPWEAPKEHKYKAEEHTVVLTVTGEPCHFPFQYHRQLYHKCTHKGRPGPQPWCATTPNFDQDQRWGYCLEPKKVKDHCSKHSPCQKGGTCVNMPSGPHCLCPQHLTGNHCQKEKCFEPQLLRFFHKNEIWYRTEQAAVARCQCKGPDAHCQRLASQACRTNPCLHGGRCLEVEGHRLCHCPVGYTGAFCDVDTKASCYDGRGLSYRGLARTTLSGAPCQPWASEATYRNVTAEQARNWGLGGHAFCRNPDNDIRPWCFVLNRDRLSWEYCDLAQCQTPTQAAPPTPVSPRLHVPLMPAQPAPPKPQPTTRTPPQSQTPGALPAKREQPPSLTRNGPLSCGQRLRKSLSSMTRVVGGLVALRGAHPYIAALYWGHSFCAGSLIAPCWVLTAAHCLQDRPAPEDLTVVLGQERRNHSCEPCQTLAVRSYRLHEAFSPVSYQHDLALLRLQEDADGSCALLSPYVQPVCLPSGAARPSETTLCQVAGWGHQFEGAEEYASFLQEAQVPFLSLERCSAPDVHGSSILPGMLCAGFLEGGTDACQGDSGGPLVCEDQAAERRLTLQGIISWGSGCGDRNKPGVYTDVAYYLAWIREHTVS
As to the kind of experiment: activated coagulation factor XII inhibitor potency, concentration-effect curve, cell-free (AID 716). The class given is functional.

Assay [11] deals with T4, Kappa-type opioid receptor (Homo sapiens, UniProt P41145). Description: kappa opioid receptor activation by imaging – image-based, set 3, SAR follow-up (AID 488833). The class given is functional.
Assay [12] addresses Mu-type opioid receptor (Homo sapiens, UniProt P35372). Description: SAR Analysis of Agonists of the MOR Receptor using an Image-Based Assay - Set 3. [Related pubchem assays (depositor defined):AID1777, AID1785, AID1786, AID1966, AID2133, AID2136, AID2284, AID2285, AID2352]. It is filed as functional.
The target in assay [13] is Delta-type opioid receptor (Homo sapiens, UniProt P41143). As to the kind of experiment: SAR Analysis of Agonists of the DOR Receptor using an Image-Based Assay - Set 3. [Related pubchem assays (depositor defined):AID1777, AID1786]. The class given is functional.
Assay [14] addresses T4, Kappa-type opioid receptor. Description: SAR analysis of small molecule agonists of the kappa opioid receptor via a luminescent beta-arrestin assay - Set 3. [Related pubchem assays (depositor defined):AID1777, AID1785, AID1786, AID1966, AID2133, AID2136, AID2284, AID2500]. The class given is functional.
For assay [15], the target named is Voltage-dependent T-type calcium channel subunit alpha-1H (Homo sapiens, UniProt O95180). Description: human CACNA1H calcium influx blockade – cell-based, synthetic library set 1, calcium flux (AID 493022). It is filed as functional. (In general: A change in cytosolic calcium serves as a functional read-out for many receptors and channels.)
The target of assay [16] is Potassium voltage-gated channel subfamily KQT member 2 (Rattus norvegicus, UniProt O88943). As to the kind of experiment: potentiation of rat KCNQ2 current – cell-based, retigabine-insensitive compounds, dose response (AID 2654). It is filed as functional.
The nature of assay [17]: NIH/3T3 cell viability loss – mouse embryonic fibroblasts, dry powder, set 2, cytotoxicity control, dose response (AID 493247). It is filed as functional, cell-based. Particulars: Fibroblast.
For assay [18], the system named is Trypanosoma cruzi. Description: anti-trypanosomal activity in host cells – cell-based, plate reader, dry powder, set 3, dose response (AID 493197). The class given is functional.
Assay [19] in a line: NIH-3T3 fibroblast cytotoxicity, dose response, cytotoxicity control, cell-based, fluorescence, Alamar Blue, secondary assay (AID 2327).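 Also: NIH-3T3 mouse fibroblasts cultured with fluconazole at 8 µg/mL.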 The class given is functional.
The target in assay [20] is Peroxisome proliferator-activated receptor gamma/Nuclear receptor coactivator 1 (Homo sapiens, UniProt P37231). Description: TR-FRET dose response biochemical High Throughput Screening assay for agonists of the steroid receptor coactivator 1 (SRC-1) recruitment by the peroxisome proliferator-activated receptor gamma (PPAR gamma): non-selective agonists. [Related pubchem assays (depositor defined):AID1300, AID1808, AID504735, AID631]. It is filed as protein assay.

Assay [21] addresses Peroxisome proliferator-activated receptor gamma/Nuclear receptor coactivator 3 (Homo sapiens, UniProt P37231). As to the kind of experiment: TR-FRET dose response biochemical High Throughput Screening assay for agonists of the steroid receptor coactivator 3 (SRC-3) recruitment by the peroxisome proliferator-activated receptor gamma (PPAR gamma): non-selective agonists. [Related pubchem assays: 1301 (Confirmation screen.), 1048 (Primary screen.)]. It is filed as functional.

The target in assay [22] is T5, Zinc finger protein mex-5 (Caenorhabditis elegans, UniProt Q9XUB2).
T5 sequence (Q9XUB2 whole entry): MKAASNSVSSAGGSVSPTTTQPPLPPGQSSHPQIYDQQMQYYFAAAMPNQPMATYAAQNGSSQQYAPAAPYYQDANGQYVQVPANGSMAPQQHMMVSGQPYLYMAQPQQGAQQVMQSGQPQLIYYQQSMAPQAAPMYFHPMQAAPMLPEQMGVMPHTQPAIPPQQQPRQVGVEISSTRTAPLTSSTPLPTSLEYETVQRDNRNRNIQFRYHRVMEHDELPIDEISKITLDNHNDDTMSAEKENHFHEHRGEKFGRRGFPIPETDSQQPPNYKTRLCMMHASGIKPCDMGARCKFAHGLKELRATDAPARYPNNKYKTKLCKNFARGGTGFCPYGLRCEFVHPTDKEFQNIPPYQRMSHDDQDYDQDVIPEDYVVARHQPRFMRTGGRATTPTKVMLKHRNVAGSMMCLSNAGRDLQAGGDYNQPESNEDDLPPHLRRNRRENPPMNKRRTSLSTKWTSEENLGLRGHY
Description: potency of MEX-5 RNA-binding blockers – biochemical, C. elegans, fluorescence polarization, dose response (AID 1960).

Assay [23] in a line: fluconazole-exposed Candida albicans growth modulators – fluorescence, retest, confirmation (AID 2467). The class given is functional, cell-based.
Assay [24] addresses Peroxisome proliferator-activated receptor gamma/Nuclear receptor coactivator 2 (Homo sapiens, UniProt P37231). As to the kind of experiment: TR-FRET dose response biochemical High Throughput Screening assay for agonists of the steroid receptor coactivator 2 (SRC-2) recruitment by the peroxisome proliferator-activated receptor gamma (PPAR gamma): non-selective agonists. [Related pubchem assays: 1297, 1032 ]. It is filed as functional.

Assay [25] deals with ORF 73 (Human herpesvirus 8, UniProt O40947). As to the kind of experiment: KSHV LANA DNA-binding disruption – biochemical, fluorescence polarization, cherry-picked samples, dose response (AID 504725).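 Also: fluorescence polarization of a labeled DNA duplex reporting LANA DNA binding; potency is for inhibitors that block LANA binding to the DNA.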 More on the design: species or system Human gammaherpesvirus 8.
Assay [26] has as its target UDP-galactopyranose mutase (Mycobacterium tuberculosis, UniProt P9WIQ1). Description: Inhibitors of Mycobacterium tuberculosis UDP-galactopyranose mutase (UGM) enzyme Measured in Biochemical System Using Plate Reader - 2105-02_Inhibitor_Dose_CherryPick_Activity. [Related pubchem assays (depositor defined):AID504439].
Assay [27] addresses Keap1/Nrf2 (Homo sapiens, UniProt Q14145). Description: disruptors of Keap1 binding to Nrf2 peptide – biochemical, fluorescence polarization, cherry-picked samples, dose response (AID 588683).

Activity calls are given as the source filed them.

This is an account of results in ChEMBL document CHEMBL1201862, “PubChem BioAssay data set” (2004).

T4 sequence (P41145 whole entry): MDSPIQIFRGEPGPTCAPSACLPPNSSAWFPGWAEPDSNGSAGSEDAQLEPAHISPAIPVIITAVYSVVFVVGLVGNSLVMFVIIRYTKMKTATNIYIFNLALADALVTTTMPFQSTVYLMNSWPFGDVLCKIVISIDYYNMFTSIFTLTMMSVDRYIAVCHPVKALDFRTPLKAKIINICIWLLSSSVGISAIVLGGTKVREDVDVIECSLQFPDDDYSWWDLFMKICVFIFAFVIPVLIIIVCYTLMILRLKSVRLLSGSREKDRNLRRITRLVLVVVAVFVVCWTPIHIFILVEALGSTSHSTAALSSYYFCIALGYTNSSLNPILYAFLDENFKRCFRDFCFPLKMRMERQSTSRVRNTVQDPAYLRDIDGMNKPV
Sequence of Delta-type opioid receptor (P41143 whole entry): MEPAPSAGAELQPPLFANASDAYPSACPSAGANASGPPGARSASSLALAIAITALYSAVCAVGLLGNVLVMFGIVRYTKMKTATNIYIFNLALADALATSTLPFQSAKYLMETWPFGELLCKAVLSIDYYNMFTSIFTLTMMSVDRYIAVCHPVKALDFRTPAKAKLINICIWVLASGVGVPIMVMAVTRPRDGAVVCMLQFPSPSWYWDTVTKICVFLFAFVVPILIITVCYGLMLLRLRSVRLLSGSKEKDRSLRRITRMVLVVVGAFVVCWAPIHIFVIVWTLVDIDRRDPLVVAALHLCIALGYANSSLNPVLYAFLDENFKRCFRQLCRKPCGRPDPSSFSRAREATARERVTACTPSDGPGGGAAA
Sequence of Potassium voltage-gated channel subfamily KQT member 2 (O88943 whole entry): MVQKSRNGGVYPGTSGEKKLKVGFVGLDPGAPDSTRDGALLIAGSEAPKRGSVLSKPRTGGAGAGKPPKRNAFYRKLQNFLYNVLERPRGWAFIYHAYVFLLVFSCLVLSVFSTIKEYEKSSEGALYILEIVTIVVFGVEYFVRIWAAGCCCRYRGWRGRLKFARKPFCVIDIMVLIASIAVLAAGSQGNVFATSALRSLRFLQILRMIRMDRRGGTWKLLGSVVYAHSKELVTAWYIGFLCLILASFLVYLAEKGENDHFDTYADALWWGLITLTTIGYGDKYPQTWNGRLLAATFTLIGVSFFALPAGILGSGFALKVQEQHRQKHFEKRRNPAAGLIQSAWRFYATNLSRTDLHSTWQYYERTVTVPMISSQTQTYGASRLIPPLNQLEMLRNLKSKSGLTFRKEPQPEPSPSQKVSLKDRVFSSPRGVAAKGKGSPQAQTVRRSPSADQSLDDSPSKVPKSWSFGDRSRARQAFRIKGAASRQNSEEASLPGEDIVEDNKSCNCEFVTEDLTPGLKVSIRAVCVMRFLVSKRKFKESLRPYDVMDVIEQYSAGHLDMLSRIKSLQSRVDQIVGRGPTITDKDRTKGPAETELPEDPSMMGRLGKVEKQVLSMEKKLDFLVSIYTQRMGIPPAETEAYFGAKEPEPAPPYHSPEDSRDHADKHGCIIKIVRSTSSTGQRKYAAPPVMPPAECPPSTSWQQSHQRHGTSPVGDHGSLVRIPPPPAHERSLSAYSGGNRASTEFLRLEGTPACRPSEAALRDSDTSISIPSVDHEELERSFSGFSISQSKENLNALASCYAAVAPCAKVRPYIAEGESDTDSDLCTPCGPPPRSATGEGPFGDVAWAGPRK
Sequence of Polyadenylate-binding protein 1 (P11940 whole entry, the tested form may be a part): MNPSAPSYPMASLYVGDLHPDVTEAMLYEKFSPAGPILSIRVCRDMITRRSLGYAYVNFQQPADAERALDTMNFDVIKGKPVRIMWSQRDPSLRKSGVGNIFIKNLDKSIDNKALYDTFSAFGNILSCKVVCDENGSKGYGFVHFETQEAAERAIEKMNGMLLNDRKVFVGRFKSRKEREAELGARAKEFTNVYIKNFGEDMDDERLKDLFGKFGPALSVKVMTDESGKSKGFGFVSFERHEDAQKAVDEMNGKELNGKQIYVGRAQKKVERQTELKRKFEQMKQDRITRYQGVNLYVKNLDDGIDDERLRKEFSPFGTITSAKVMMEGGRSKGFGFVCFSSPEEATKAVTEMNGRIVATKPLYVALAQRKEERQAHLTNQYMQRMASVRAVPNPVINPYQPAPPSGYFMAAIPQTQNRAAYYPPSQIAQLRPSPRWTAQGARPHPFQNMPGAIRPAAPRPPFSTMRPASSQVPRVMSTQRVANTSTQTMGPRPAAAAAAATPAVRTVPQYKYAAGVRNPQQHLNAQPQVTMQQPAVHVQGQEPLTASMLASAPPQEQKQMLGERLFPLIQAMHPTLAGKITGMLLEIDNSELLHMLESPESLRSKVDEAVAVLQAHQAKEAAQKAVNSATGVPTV
Sequence of Voltage-dependent T-type calcium channel subunit alpha-1H (O95180 whole entry): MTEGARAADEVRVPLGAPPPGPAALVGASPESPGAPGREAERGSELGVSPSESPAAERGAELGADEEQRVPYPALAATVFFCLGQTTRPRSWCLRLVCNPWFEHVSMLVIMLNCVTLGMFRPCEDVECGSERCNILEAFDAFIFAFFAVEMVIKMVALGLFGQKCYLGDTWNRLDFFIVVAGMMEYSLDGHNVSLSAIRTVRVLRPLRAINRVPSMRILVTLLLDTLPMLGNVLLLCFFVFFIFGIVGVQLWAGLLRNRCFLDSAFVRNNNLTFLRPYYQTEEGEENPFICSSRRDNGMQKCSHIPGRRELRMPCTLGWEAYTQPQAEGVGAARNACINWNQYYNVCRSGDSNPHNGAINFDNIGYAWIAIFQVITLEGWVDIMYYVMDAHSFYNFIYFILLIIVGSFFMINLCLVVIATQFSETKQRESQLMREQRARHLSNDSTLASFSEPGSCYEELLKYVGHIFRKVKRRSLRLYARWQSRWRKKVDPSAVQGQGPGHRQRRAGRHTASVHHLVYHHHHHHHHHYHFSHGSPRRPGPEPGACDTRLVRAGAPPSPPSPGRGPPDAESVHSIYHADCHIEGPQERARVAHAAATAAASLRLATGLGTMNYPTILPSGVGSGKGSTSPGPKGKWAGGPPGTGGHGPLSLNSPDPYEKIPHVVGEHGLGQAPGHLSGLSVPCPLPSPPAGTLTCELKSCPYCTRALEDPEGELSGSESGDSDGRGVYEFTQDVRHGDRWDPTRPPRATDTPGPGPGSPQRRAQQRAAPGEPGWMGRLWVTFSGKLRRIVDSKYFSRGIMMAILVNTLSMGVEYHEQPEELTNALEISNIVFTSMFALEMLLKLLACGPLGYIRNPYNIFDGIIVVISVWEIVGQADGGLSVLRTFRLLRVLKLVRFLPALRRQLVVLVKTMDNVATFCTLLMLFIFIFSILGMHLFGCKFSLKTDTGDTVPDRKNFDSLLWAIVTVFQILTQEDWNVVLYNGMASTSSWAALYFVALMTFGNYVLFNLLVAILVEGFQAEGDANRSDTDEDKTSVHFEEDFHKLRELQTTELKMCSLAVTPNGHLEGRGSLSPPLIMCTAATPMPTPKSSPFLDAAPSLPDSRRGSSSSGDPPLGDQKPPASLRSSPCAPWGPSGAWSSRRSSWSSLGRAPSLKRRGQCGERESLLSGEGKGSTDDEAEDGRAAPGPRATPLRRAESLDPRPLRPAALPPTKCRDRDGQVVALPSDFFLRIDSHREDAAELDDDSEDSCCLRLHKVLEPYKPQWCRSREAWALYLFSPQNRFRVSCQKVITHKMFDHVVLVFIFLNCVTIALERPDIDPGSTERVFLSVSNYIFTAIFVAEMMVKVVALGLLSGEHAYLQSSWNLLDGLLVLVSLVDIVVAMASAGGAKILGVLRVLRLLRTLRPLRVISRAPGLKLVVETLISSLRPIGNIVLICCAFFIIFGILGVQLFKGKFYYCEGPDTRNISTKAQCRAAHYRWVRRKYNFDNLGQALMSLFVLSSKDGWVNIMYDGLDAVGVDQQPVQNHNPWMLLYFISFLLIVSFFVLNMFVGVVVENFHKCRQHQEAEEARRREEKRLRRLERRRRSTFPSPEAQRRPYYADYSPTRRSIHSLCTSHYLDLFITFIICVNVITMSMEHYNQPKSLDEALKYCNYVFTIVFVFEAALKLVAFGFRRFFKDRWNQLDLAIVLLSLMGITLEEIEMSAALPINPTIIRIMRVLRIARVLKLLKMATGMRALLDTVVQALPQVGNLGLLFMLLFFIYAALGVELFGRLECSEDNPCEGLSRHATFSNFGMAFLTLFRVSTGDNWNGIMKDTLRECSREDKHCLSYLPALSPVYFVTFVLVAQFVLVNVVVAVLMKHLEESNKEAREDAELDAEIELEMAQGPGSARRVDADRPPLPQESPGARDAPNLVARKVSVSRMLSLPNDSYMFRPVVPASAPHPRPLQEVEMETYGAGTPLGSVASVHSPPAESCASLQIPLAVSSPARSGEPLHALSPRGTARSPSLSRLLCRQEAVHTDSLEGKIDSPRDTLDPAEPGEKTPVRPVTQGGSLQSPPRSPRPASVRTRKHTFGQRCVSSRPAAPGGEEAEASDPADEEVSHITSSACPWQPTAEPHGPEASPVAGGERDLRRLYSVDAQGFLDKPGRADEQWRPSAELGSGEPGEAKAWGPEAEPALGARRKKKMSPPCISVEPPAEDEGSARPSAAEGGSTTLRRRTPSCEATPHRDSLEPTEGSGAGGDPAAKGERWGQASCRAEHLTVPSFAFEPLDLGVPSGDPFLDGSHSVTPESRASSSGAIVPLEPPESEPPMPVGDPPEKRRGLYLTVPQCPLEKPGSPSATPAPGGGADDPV

Take `O=C(CC1=NCCNC(c2ccccc2)C1)c1ccccc1O` (stereo not drawn): the EC50 in assay [1] was 69.3 µM (active); in assay [2], 43.1 µM (active); in assay [3], 67.6 µM (active); in assay [4] it was 565 nM (active).

A word on the IC50: it is the concentration that gives 50% inhibition. For `Cc1cccc(NC(=O)CSc2ccc(-c3ccco3)nn2)c1C`, the half-maximal inhibitory concentration (IC50) in assay [5] is 71.5 µM (active); in [6] it was > 100 µM (inactive).

Consider `COC(=O)Cn1cc(/C=C2\C(=O)NC(=O)N(c3ccccc3)C2=O)c2ccccc21`, for which the EC50 was > 300 µM (inconclusive) in assay [7] and 7.64 µM (active) in assay [9]. The IC50 in assay [8] was > 100 µM (inactive).

For the compound `O=C(CN1C(=O)c2ccccc2S1(=O)=O)N1CCN(c2ccccc2F)CC1`, the IC50 in [10] is > 50 µM (inactive).

As for `Fc1ccc(CSc2nnc(-c3ccccn3)n2Cc2cccs2)c(C(F)(F)F)c1`, the EC50 in [11] is 2.26 µM (active); in assay [12], > 32 µM (inactive); in assay [13], > 32 µM (inactive); in [14], 4.46 µM (active).

In the case of `O=C(COc1ccc(Cl)cc1)Nc1nnc(-c2ccc(F)c(F)c2)o1`, in assay [15], the EC50 is 1.5 µM (active).

In the case of `O=C(NCc1ccc(Cl)cc1Cl)Nc1cncc(F)c1`, the EC50 in assay [16] is 8.64 µM (active).

One may read the AC50 as the midpoint of the concentration-response curve, whichever way the signal moves. For the compound `CN(Cc1ccccc1)C(=O)C1CCCN(Cc2ccc(Br)cc2)C1` (stereo not drawn), the half-maximal activity concentration (AC50) in assay [17] is 74.3 µM (active); in assay [18], 3.01 µM (active).

Consider `COc1ccc(C2C(C(=O)c3cccs3)=C(O)C(=O)N2c2nncs2)cc1` (stereo not drawn), for which the EC50 in [19] is > 150 µM (inconclusive); in assay [7] it was 0.549 µM (inconclusive); in [20], > 79.4 µM (inactive); in assay [21], > 79.4 µM (not active); in [22], 100 nM (inconclusive); in [23] it was > 38 µM (not active). For the same compound, the EC50 in [24] was > 79.4 µM (not active). Moreover, the AC50 in [25] is 7.29 µM (active); in [26], 51.7 µM (active); in assay [27] it was 20.3 µM (active).
